ChEMBL document CHEMBL1681750, “Cofactor-type inhibitors of inosine monophosphate dehydrogenase via modular approach: targeting the pyrophosphate binding sub-domain” (Bioorg Med Chem, 2011)

What was measured:
[1] = target: Inosine-5'-monophosphate dehydrogenase 1 (Homo sapiens, UniProt P20839); assay: Inhibition of human IMPDH1 by Spectrophotometry
[2] = tested on: K562; assay: Antiproliferative activity against human K562 cells after 72 hrs by MTS assay; assay type: functional, cell-based; settings: K562, 72 h

Sequence of Inosine-5'-monophosphate dehydrogenase 1 (P20839 whole entry): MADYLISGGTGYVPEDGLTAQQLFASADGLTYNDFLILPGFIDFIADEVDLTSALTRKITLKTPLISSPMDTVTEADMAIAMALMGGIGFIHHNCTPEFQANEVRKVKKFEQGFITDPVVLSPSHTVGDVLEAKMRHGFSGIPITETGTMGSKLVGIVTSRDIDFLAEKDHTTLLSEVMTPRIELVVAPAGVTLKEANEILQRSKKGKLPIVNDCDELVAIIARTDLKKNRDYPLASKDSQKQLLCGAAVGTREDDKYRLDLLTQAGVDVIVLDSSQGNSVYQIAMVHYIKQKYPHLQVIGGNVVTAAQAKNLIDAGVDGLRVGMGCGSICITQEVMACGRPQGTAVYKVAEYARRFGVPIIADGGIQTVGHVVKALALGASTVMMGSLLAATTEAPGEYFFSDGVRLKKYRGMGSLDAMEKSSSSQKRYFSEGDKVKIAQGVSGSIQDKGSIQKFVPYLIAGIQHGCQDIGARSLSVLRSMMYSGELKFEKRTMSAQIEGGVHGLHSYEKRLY

SMILES	Ki [1] [µM]	IC50 [2] [µM]
CCc1nc(N)c2ncn([C@H]3O[C@@H](COP(=O)(O)OP(=O)(O)OC[C@H]4O[C@@H](c5nc(C(N)=O)cs5)[C@H](O)[C@@H]4O)[C@H](O)[C@@H]3O)c2n1	0.001	–
NC(=O)c1csc([C@@H]2O[C@H](CNS(=O)(=O)CS(=O)(=O)NC[C@@H]3O[C@H](n4cnc5c(N)ncnc54)[C@@H](O)[C@H]3O)[C@@H](O)[C@H]2O)n1	23.6	> 100
COc1c(C)c2c(c(O)c1CCOP(=O)(O)CCP(=O)(O)O)C(=O)OC2 [MYCOPHENOLIC ETHYLENEBIS]	5.55	> 100

Further compounds by falling Ki [1], results first:

Ki [1] [µM]	IC50 [2] [µM]	SMILES
14.2	> 100	NC(=O)c1csc([C@@H]2O[C@H](COP(=O)(O)CC(=O)NC[C@@H]3O[C@H](n4cnc5c(N)ncnc54)[C@@H](O)[C@H]3O)[C@@H](O)[C@H]2O)n1
0.013	4.7	CCc1nc(N)c2ncn([C@H]3O[C@@H](COP(=O)(O)C(F)(F)P(=O)(O)OC[C@H]4O[C@@H](c5nc(C(N)=O)cs5)[C@H](O)[C@@H]4O)[C@H](O)[C@@H]3O)c2n1
